Source: ChEMBL document CHEMBL5576087 (Bioorg Med Chem Lett, 2024)
Calls of active or inactive are those of the source. The calls are words filed in the database; no cut-off is given here.

How the values were obtained:
HUVEC [1] = test: Inhibition of tube formation in HUVEC cells at 100 uM measured after 18 hrs relative to control; assay type: functional; conditions: Homo sapiens
MM1.S [2] = test: Effect on GSPT1 protein level in human MM1.S cells at 0.1 uM measured after 16 hrs by Western blot analysis; assay type: functional, cell-based
MM1.S [3] = test: Effect on IKZF3 protein level in human MM1.S cells at 0.1 uM measured after 16 hrs by Western blot analysis; assay type: functional, cell-based
Protein cereblon = Protein cereblon (Homo sapiens, UniProt Q96SW2); test: Binding affinity to human CRBN TBD (319 to 425 residues) assessed as inhibition constant by MST assay
MM1.S [4] = test: Effect on CK1a protein level in human MM1.S cells at 0.1 uM measured after 16 hrs by Western blot analysis; assay type: functional, cell-based
HuH-6 = test: Effect on SALL4 protein level in human HuH-6 cells at 0.1 uM measured after 16 hrs by Western blot analysis; assay type: functional, cell-based
HUVEC [5] = test: Antiangiogenesis activity in HUVEC cells assessed as inhibition of tube formation at 10 to 100 uM measured after 18 hrs; assay type: functional, cell-based; conditions: Homo sapiens, dose 10-100 µM
HUVEC [6] = test: Antiproliferative activity against human HUVEC cells at 10 uM measured after 48 hrs by CCK-8 method; assay type: toxicity, cell-based
MM1.S [7] = test: Antiproliferative activity against human MM1.S cells at 10 uM measured after 72 hrs by CCK-8 method; assay type: functional, cell-based
[8] = Metabolic stability in human liver microsomes assessed as half life measured upto 60 mins in presence of NADPH by LC/MS analysis; assay type: ADME, Microsome
HUVEC [9] = test: Antiangiogenesis activity in HUVEC cells assessed as inhibition of tube formation measured after 18 hrs; assay type: functional, cell-based; conditions: Homo sapiens
HUVEC [10] = test: Antiproliferative activity against human HUVEC cells at 10 uM measured after 48 hrs by CCK-8 method relative to control; assay type: toxicity, cell-based
MM1.S [11] = test: Antiproliferative activity against human MM1.S cells at 100 uM measured after 72 hrs by CCK-8 method; assay type: functional, cell-based
HUVEC [12] = test: Antiproliferative activity against human HUVEC cells at 100 uM measured after 48 hrs by CCK-8 method; assay type: toxicity, cell-based

O=C1CCC(NC(=O)c2cc(F)c(F)cc2F)C(=O)N1 (centres undefined)
inhibition (HUVEC [1]): inactive

CC(C)N1C(=O)NC(=O)C(C)(NC(=O)c2ccccc2)C1=O (centres undefined)
Activity (MM1.S [2]): inactive | Activity (MM1.S [3]): inactive | Ki (Protein cereblon): Not Active | Activity (MM1.S [4]): inactive | Activity (HuH-6): inactive | Activity (HUVEC [5]): inactive | Activity (HUVEC [6]): Non-Toxic | Activity (MM1.S [7]): inactive

CCOCCNc1cccc2c1C(=O)N(C1CCC(=O)NC1=O)C2=O (centres undefined)
inhibition at 100 µM (HUVEC [1]): 50%

CC(C)N1C(=O)NC(=O)C(C)(N2C(=O)c3ccccc3C2=O)C1=O (centres undefined)
Activity (MM1.S [2]): inactive | Activity (MM1.S [3]): inactive | Ki (Protein cereblon): Not Active | Activity (MM1.S [4]): inactive | Activity (HuH-6): inactive | Activity (HUVEC [5]): inactive | Activity (HUVEC [6]): Non-Toxic | Activity (MM1.S [7]): inactive | half-life [8]: 19.3 min

O=C1CCC(NC(=O)c2cc(F)c(F)c(F)c2F)C(=O)N1 (centres undefined)
Activity (MM1.S [2]): inactive | Activity (MM1.S [3]): inactive | Activity (MM1.S [4]): inactive | Activity (HuH-6): inactive | Activity (HUVEC [5]): inactive | Activity (HUVEC [6]): Non-Toxic | Activity (MM1.S [7]): inactive

O=C1CCC(NC(=O)c2ccccc2)C(=O)N1 (centres undefined)
Activity (MM1.S [2]): inactive | Activity (MM1.S [3]): inactive | Activity (MM1.S [4]): inactive | Activity (HuH-6): inactive | Activity (HUVEC [5]): inactive | Activity (HUVEC [6]): Non-Toxic | Activity (MM1.S [7]): inactive

CC(C)N1C(=O)NC(=O)C(C)(N2C(=O)c3c(F)c(F)c(F)c(F)c3C2=O)C1=O (centres undefined)
Activity (MM1.S [2]): inactive | Activity (MM1.S [3]): inactive | Ki (Protein cereblon): Not Active | IC50 (HUVEC [9]): 2800 nM | Activity (MM1.S [4]): inactive | Activity (HuH-6): inactive | Activity (HUVEC [10]): > 95%

CC(C)N1C(=O)NC(=O)C(C)(NC(=O)c2cc(F)c(F)c(F)c2F)C1=O (centres undefined)
Activity (MM1.S [2]): inactive | Activity (MM1.S [3]): inactive | Ki (Protein cereblon): Not Active | Activity (MM1.S [4]): inactive | Activity (HuH-6): inactive | Activity (HUVEC [5]): inactive | Activity (HUVEC [6]): Non-Toxic | Activity (MM1.S [7]): inactive

O=C1CCC(N2C(=O)c3ccccc3C2=O)C(=O)N1 (centres undefined) [THALIDOMIDE]
Activity (MM1.S [2]): inactive | Activity (MM1.S [11]): inactive | Activity (MM1.S [3]): inactive | Activity (HUVEC [12]): Non-Toxic | Activity (MM1.S [4]): inactive | Activity (HuH-6): inactive | Activity (HUVEC [5]): inactive

O=C1CCC(N2C(=O)c3c(F)c(F)c(F)c(F)c3C2=O)C(=O)N1 (centres undefined)
Activity (MM1.S [2]): inactive | Activity (MM1.S [3]): inactive | Activity (MM1.S [4]): inactive | Activity (HuH-6): inactive
